Measured values as given in article PMC3885398, “Evaluation of the Antitumor Effects of BPR1J-340, a Potent and Selective FLT3 Inhibitor, Alone or in Combination with an HDAC Inhibitor, Vorinostat, in AML Cancer” (PLoS ONE, 2014).
Entries after “also recorded” stand apart in the source; their conditions may differ.

Tested on: MOLM-13 tumor xenograft
Assay: Subcutaneous MOLM-13 tumor xenograft in nude mice
Assay type: in vivo
Description: Male nude mice (Nu-Fox1nu) of eight weeks old were purchased from BioLasco (Ilan, Taiwan). The nude mice (n = 5∼7 per group) were inoculated subcutaneously with MOLM-13 (1×10^6 cells/flank). All human cancer cells were determined to be free of Mycoplasma spp before the inoculation. When tumors size reached 100∼200 mm^3 and a large size of >500 mm^3, the animals were grouped and treated with the BPR1J-340 (5 and 20 mg/kg, i.v.) or vehicle as control once daily for 5 days per week for two or three weeks. Tumor sizes were measured and calculated with the formula of length×width^2/2 after the initiation of the treatments. Tumor size and animal body weight were measured twice a week after the tumor cell inoculation. At the end of the study, animals were euthanized by carbon dioxide inhalation followed by cervical dislocation. The significant difference between the treated and vehicle control were analyzed by using one-way ANOVA and Student-Newman-Keuls test. The level of a statistical significance was set at p<0.05.

Q: Which results are given for `CCc1cc(NC(=O)NCc2ccc(-c3cc(NC(=O)c4ccc(CN5CCN(C)CC5)cc4)[nH]n3)cc2)no1` [BPR1J-340, N1-(3-4-[([(5-ethyl-3-isoxazolyl)amino]carbonylamino)methyl]phenyl-1H-5-pyrazolyl)-4-[(4-methylpiperazino)methyl]benzamide]?
A: CR ratio (5 mg/kg): 67%; tumor response (5 mg/kg i.v. qd, days 1–5 of each week for 3 weeks, tumors about 200 mm^3): complete regression of the tumor in all animals by day 22; also recorded: inhibited; complete regression (CR), animals (5 mg/kg i.v. qd, days 1–5 weekly for 3 weeks, within 31 days of post-treatment observation): 4 of 6; tumor response, large tumors (20 mg/kg i.v., days 1–5 of each week for 2 weeks, average tumor volume 630 mm^3, 48-day follow up): complete and durable tumor regression; also recorded: significantly reversed; body weight, mortality, tolerability (nude mice, 5 and 20 mg/kg/day i.v.): well-tolerated
